In patent US20250268878A1, “FERROPORTIN-INHIBITORS FOR THE USE IN THE TREATMENT OF MYELODYSPLASTIC SYNDROMES (MDS)” (Vifor (International) AG, priority 2021, published 2025):
Entries after “also recorded” stand apart in the source; their conditions may differ.

Key:
NUP98-HOXD13 MDS mice [1] = assay: NUP98-HOXD13 MDS mouse model, rescuing effect (treatment from 5 months of age); type: in vivo; conditions: over a total of 10
NUP98-HOXD13 MDS mice [2] = assay: NUP98-HOXD13 MDS mouse model, preventive effect (treatment from 3 months of age); type: in vivo; conditions: for Immature Lin+ cKit+ cells in bone marrow: 3 months-long treatment; for Erythropoiesis / erythroid maturation in bone marrow and spleen: CD71 and CD44 loss on Ter119+ cells; for ROS formation in Ter119+ erythroid precursors: flow cytometry; for NTBI levels: serum, 0.5 mg/ml in drinking water
Protocol: (§1) • The ferroportin inhibitor compound Fpn127 was tested in NUP98-HOXD13 MDS mice. Fpn127was administered in drinking water containing 1% glucose at the concentration of 0.5 mg/ml.
• To study the protective effect of ferroportin inhibitors according to the invention on the progressive development of iron overload and related toxicities, overall 15 3-month-old MDS mice were treated with the Example Compound Fpn127 and compared to age-and sex-matched 15 untreated MDS mice and wild-type control (total of 3 repeated experiments). Mice were treated for 3 months-from 3 to 6 months of age. During the treatment period 2 untreated and 1 treated MDS mice were lost. • MDS mice of 3 months of age already show a certain degree of anemia, which supports to use the ferroportin inhibitors in the treatment starting from 3 months to improve erythropoiesis and anemia (FIG. 1). • About 60-70% of MDS mice show a mild to moderate anemia at 3 months of age. According to Hb levels, 3 month-old MDS mice can be divided into 3 groups presenting very mild, mild and moderate anemia (no/very mild anemia: Hb>13 g/dl; mild anemia: 10 g/dl<Hb<13 g/dl; moderate anemia: 8 g/dl<Hb<10 g/dl) (FIG. 2). Rarely MDS mice show severe anemia at 3 months age (severe anemia: Hb<8 g/dl). This reflects the situation of MDS patients whose 70-80% present anemia at diagnosis with different degree of severity. • In MDS mice treated for 3 months with Fpn127 from 3 to 6 months of age, the following parameters were monitored: • Serum iron levels and NTBI; • Liver iron accumulation; • Anemia and blood parameters; • Erythropoiesis—including RBC maturation, erythroid precursor apoptosis and ROS; • Hematopoietic stem cells—including apoptosis, ROS and DNA damage; • Bone marrow macrophages and myeloid-derived suppressor cells (not shown). • The FIGS. 3 to 15 show the results obtained as average of 3 independent experiments.
• Similar as in the MDS mouse model described above, the kinetic effects of VIT-2763, administered into the drinking water (0.5 mg/ml) was investigated in NUP98-HOXD13 model of MDS.
• To study the protective effect of the compound on the progressive development of iron overload and related toxicities, 3-month-old MDS mice were treated and compared to age-and sex-matched untreated MDS mice and wild-type control. Mice were treated with VIT-2763 from 3 months of age on to follow longitudinally blood parameters and survival (FIGS. 16-19), or for 3 months-from 3 to 6 months of age, for cellular and biochemical analyses (FIGS. 20-24).

NUP98-HOXD13 MDS mice [3] = assay: NUP98-HOXD13 MDS mouse model, rescuing effect (treatment from 5 months of age); type: in vivo; conditions: for Leukemia development / Anemia after 5 months of treatment: additional results; for Leukemia development: WBC; for Anemia after 5 months of treatment: 10 months of age
Protocol: as §1
• To study the rescuing effect of the ferroportin inhibitors according to the invention on the established iron overload and related toxicities in MDS, overall 8 5-month-old MDS mice were treated with the Example Compound Fpn127 and compared to 8 age-and sex-matched MDS untreated mice and wild-type control (1 experiment). Mice were treated from 5 months of age onwards. During the treatment period 3 untreated and 3 treated MDS mice were lost. […] Other 2 mice died without the opportunity to monitor parameters. No molecular analysis of 5 month-old treated mice was obtained as this cohort was kept for further observing and monitoring. To better follow individual blood parameter modulation two cohorts of mice whose treatment has been started at 3 and 5 months of age respectively, are analyzed longitudinally once a month along the treatment.
• To study the rescuing effect of the compound on the established iron overload and related toxicities in MDS, 5-month-old MDS mice were treated and compared to age-and sex-matched untreated MDS mice and wild-type controls. Mice were treated from 5 months of age onwards. […] The anemia of MDS mice tends to worsen from 5 months of age on.

[4] = system: mouse model of β-thalassemia; conditions: cited from earlier work
transfused guinea pigs = conditions: cited from earlier work
[5] = 3 to 6 months of age, listed as VIT
[6] = 3 to 6 months of age, listed as VIT-2763
[7] = Annexin V, MDS mice, 3 to 6 months of age
[8] = MDS mice, 3 to 6 months of age, listed as Example Compound No. 127
[9] = MDS mice, 0.5 mg/ml, 3 to 6 months of age
[10] = MDS mice, 0.5 mg/ml, 3 to 6 months of age, listed as Example Compound No. 127
[11] = bone marrow, MDS mice, 3 to 6 months of age
[12] = treated from 3 months of age on, from 5 through 7 months of age
[13] = treated from 5 months of age, listed as VIT
[14] = treated from 5 months of age, listed as VIT-2763

In the case of `O=C(NCc1ncccc1F)c1coc(CCNCCc2nc3ccccc3[nH]2)n1` [Fpn127], the “Treated MDS mice still alive at 15 months of age” value (NUP98-HOXD13 MDS mice [1]) is reported as “two”, the “Immature Lin+ cKit+ cells in bone marrow” value (NUP98-HOXD13 MDS mice [2]; [5]) is reported as “reduced” and the “Immature Lin+ cKit+ cells in bone marrow” value (NUP98-HOXD13 MDS mice [2]; [6]) is reported as “reduces”. For the same compound, the “Bone marrow CD11b+ myeloid cells (myeloid expansion)” value (NUP98-HOXD13 MDS mice [2]; [5]) was “reduced”, the “IL-1β production by bone marrow macrophages” value (NUP98-HOXD13 MDS mice [2]; [5]) was “reduced” and the “Macrophage number in bone marrow” value (NUP98-HOXD13 MDS mice [2]; [5]) was “improved macrophage number”. For the same compound, the “Monocytic and granulocytic myeloid-derived suppressor cells (MDSCs) in bone marrow” value (NUP98-HOXD13 MDS mice [2]; [5]) was “reduced”, the “TNFα production by bone marrow macrophages” value (NUP98-HOXD13 MDS mice [2]; [5]) was “reduced” and the “Bone marrow CD11b+ myeloid cells (myeloid expansion)” value (NUP98-HOXD13 MDS mice [2]; [6]) was “reduces myeloid expansion”. For the same compound, the “IL-1β production by bone marrow macrophages” value (NUP98-HOXD13 MDS mice [2]; [6]) was “limits”, the “Macrophage number in bone marrow” value (NUP98-HOXD13 MDS mice [2]; [6]) was “improves macrophage number” and the “Monocytic and granulocytic myeloid-derived suppressor cells (MDSCs) in bone marrow” value (NUP98-HOXD13 MDS mice [2]; [6]) was “reduces myeloid expansion”. The “TNFα production by bone marrow macrophages” value (NUP98-HOXD13 MDS mice [2]; [6]) was “limits”, the “Apoptosis in Ter119+ erythroid precursors” value (NUP98-HOXD13 MDS mice [2]; [7]) was “decreasing; also recorded: reduced” and the “Cell survival / apoptosis of LSK cells” value (NUP98-HOXD13 MDS mice [2]; [7]) was “lower apoptosis”. The “Apoptosis in Ter119+ erythroid precursors” value (NUP98-HOXD13 MDS mice [2]; Annexin V, MDS mice, 3 to 6 months of age, listed as Example Compound No. 127) was “prevent their apoptosis”, the “Erythropoiesis / erythroid maturation in bone marrow and spleen” value (NUP98-HOXD13 MDS mice [2]; MDS mice, 3 to 6 months of age) was “improves bone marrow erythroid maturation; also recorded: improves splenic erythroid maturation; also recorded: significantly improved” and the “Erythropoiesis / erythroid maturation in bone marrow and spleen” value (NUP98-HOXD13 MDS mice [2]; [8]) was “improve ineffective erythropoiesis”. For the same compound, the “Improvement of Hb levels” value (NUP98-HOXD13 MDS mice [2]; MDS mice treated from 3 months of age, after 2, 3 and 4 months of treatment) was “about 2 g/dl”, the “Anemia, longitudinal monitoring” value (NUP98-HOXD13 MDS mice [2]; MDS mice treated with 0.5 mg/ml from 3 months of age) was “improves anemia” and the Serum iron levels (NUP98-HOXD13 MDS mice [2]; MDS mice, 0.5 mg/ml in drinking water for 3 months, 3 to 6 months of age) was “reduces; also recorded: significantly decreased”. The Anemia (NUP98-HOXD13 MDS mice [2]; [9]) was “Improved anemia; also recorded: ameliorates anemia”, the HCT (NUP98-HOXD13 MDS mice [2]; [9]) was “significantly improved” and the Hb (NUP98-HOXD13 MDS mice [2]; [9]) was “significantly improved”. For the same compound, the Kidney iron content (NUP98-HOXD13 MDS mice [2]; [9]) was “significantly decreased”, the Liver iron content (NUP98-HOXD13 MDS mice [2]; [9]) was “prevents iron loading; also recorded: significantly decreased” and the MCH (NUP98-HOXD13 MDS mice [2]; [9]) was “remain unchanged”. For the same compound, the MCV (NUP98-HOXD13 MDS mice [2]; [9]) was “remain unchanged”, the Platelet count (NUP98-HOXD13 MDS mice [2]; [9]) was “remains unchanged” and the RBC (NUP98-HOXD13 MDS mice [2]; [9]) was “significantly improved”. For the same compound, the Reticulocytes (NUP98-HOXD13 MDS mice [2]; [9]) was “trend to improvement”, the Spleen iron (NUP98-HOXD13 MDS mice [2]; [9]) was “further elevated” and the “WBC count elevation / progression to leukemia” value (NUP98-HOXD13 MDS mice [2]; [9]) was “trend in reducing progression to leukemia; also recorded: only one mouse show a trend to elevated WBC count”. For the same compound, the Anemia (NUP98-HOXD13 MDS mice [2]; [10]) was “ameliorate anemia”, the Liver iron content (NUP98-HOXD13 MDS mice [2]; [10]) was “prevent” and the “Double strand breaks (γH2AX) in LSK cells” value (NUP98-HOXD13 MDS mice [2]; MDS mice, 3 to 6 months of age) was “reduced double strand breaks”. The “ROS production in LSK cells” value (NUP98-HOXD13 MDS mice [2]; MDS mice, 3 to 6 months of age) was “decreased ROS production”, the “Expression of CD71 on Ter119+ erythroid precursors” value (NUP98-HOXD13 MDS mice [2]; bone marrow and spleen, MDS mice, 3 to 6 months of age) was “significant reduction” and the “Overall status of hematopoietic LSK stem cells” value (NUP98-HOXD13 MDS mice [2]; [11]) was “improves the overall status; also recorded: overall improvement”. The “Pool of LSK cells” value (NUP98-HOXD13 MDS mice [2]; [11]) was “likely preserved”, the “ROS formation in Ter119+ erythroid precursors” value (NUP98-HOXD13 MDS mice [2]; MDS mice, 3 to 6 months of age) was “decreasing; also recorded: reduced” and the “ROS formation in Ter119+ erythroid precursors” value (NUP98-HOXD13 MDS mice [2]; [8]) was “limit”. For the same compound, the “Iron accumulation in LSK cells” value (NUP98-HOXD13 MDS mice [2]; labile iron, MDS mice, 3 to 6 months of age) was “reduced iron accumulation”, the “WBC increase in peripheral blood / leukemia evolution” value (NUP98-HOXD13 MDS mice [2]; longitudinal, treated from 3 months of age, listed as VIT-2763) was “delays leukemia evolution; also recorded: not observed or delayed” and the NTBI levels (NUP98-HOXD13 MDS mice [2]; MDS mice, 3 to 6 months of age) was “reduces; also recorded: significantly decreased”. For the same compound, the NTBI levels (NUP98-HOXD13 MDS mice [2]; [8]) was “prevent NTBI formation”, the “Survival (Kaplan-Meier)” value (NUP98-HOXD13 MDS mice [2]; treated from 3 months of age) was “improves MDS mice survival” and the “HCT, longitudinal monitoring” value (NUP98-HOXD13 MDS mice [2]; [12]) was “significantly improved”. For the same compound, the “Hb, longitudinal monitoring” value (NUP98-HOXD13 MDS mice [2]; [12]) was “significantly improved”, the “RBC, longitudinal monitoring” value (NUP98-HOXD13 MDS mice [2]; [12]) was “significantly improved” and the Leukemia development (NUP98-HOXD13 MDS mice [3]; [13]) was “delayed leukemia development”. For the same compound, the Leukemia development (NUP98-HOXD13 MDS mice [3]; [14]) was “delays leukemia evolution”, the “Anemia after 5 months of treatment” value (NUP98-HOXD13 MDS mice [3]; [13]) was “improved anemia was observed” and the “Anemia after 5 months of treatment” value (NUP98-HOXD13 MDS mice [3]; [14]) was “improves anemia”. For the same compound, the “Median survival improvement compared to untreated mice” value (NUP98-HOXD13 MDS mice [3]; older MDS mice, treated from 5 months of age) was “about 16 days”, the “Hb of treated mice still alive at 15 months of age” value (NUP98-HOXD13 MDS mice [3]; stable blood parameters) was “about 9 g/dl” and the “Survival (Kaplan-Meier)” value (NUP98-HOXD13 MDS mice [3]; treated from 5 months of age) was “improves MDS mice survival”. The “Anemia after 3 months of treatment” value (NUP98-HOXD13 MDS mice [3]; treated from 5 months of age, 5 to 8 months of age) was “failed to observe improved anemia”, the “Anemia in older MDS mice” value (NUP98-HOXD13 MDS mice [3]; treated from 5 months of age, mice at 9 and 10 months of age, subset of mice) was “improves anemia; also recorded: partial improvement of anemia” and the “Progression to leukemia / leukemia-related death” value (NUP98-HOXD13 MDS mice [3]; treated from 5 months of age, mice that died) was “reduces leukemia-related death; also recorded: no apparent progression to leukemia”. For the same compound, the “Life span reached by MDS mice benefiting from treatment” value (NUP98-HOXD13 MDS mice [3]; untreated all dying within 400 days) was “up to 600 days”, the Anemia [4] was “ameliorated anemia” and the Liver iron loading [4] was “prevents liver iron loading”. The Ineffective erythropoiesis ([4]; oral) was “improves ineffective erythropoiesis”.
In the case of `O=C(NCc1ncccc1F)c1csc(CCNCc2nc3ccccc3[nH]2)n1` [VIT-2653], the “Hb levels following exchange transfusion” value (transfused guinea pigs; guinea pigs, intravenous) is listed as “significantly improved”, the “NTBI levels following exchange transfusion” value (transfused guinea pigs; guinea pigs, intravenous) is listed as “significantly improved” and the “Total iron in kidneys following transfusion” value (transfused guinea pigs; guinea pigs, intravenous) is listed as “can be reduced”. The “Occurrence of changes in plasma creatinine >0.3 mg/dL (early acute kidney injury)” value (transfused guinea pigs; transfused guinea pigs) was “significantly reduced”.
